Test in all cases: standard MIC test, synergist in combination with amoxycillin
Holding throughout (type): cell-based
What all share (details): substance alone, unit assumed

One test has as its system E.coli JT39. How it is done: (§1) In a standard MIC test the compound of Example 2 was tested as a synergist in combination with amoxycillin: […]
The next test relates to Klebsiella Aerogenes E70. How it is done: as §1
The subject of a further test is Staph Aureus Russell. As for the experimental part: as §1

As for `CC1(C)S[C@@H]2[C@H](NC(=O)[C@H](N)c3ccc(O)cc3)C(=O)N2[C@H]1C(=O)O` [Amoxycillin], the MIC with E.coli JT39 was 2000 µg/mL; in the test with Klebsiella Aerogenes E70 it was 500 µg/mL; with Staph Aureus Russell, 500 µg/mL.

Regarding `COC(OC)OC/C=C1\O[C@@H]2CC(=O)N2[C@H]1C(=O)O` [Ex. 2, Lithium 9-O-(dimethoxymethyl)clavulanate], the MIC with E.coli JT39 is 31 µg/mL; in the test with Klebsiella Aerogenes E70 it was 62 µg/mL; with Staph Aureus Russell, 62 µg/mL.

Broadly, the MIC is the least concentration at which growth counts as inhibited.

Source of the values: patent EP0080284A1, “Derivatives of clavulanic acid, processes for their preparation and their use” (BEECHAM GROUP PLC, priority 1981, dated 1983).
